According to ChEMBL document CHEMBL1201862, “PubChem BioAssay data set” (2004):
Calls of active or inactive are those of the source.

Columns and labels:
HeLa = experiment: HeLa cell cytotoxicity, dose response, cytotoxicity control for MITF activator project, CellTiter-Glo luminescence, cherry-pick samples (AID 540259); format: functional, cell-based; conditions: Homo sapiens
[1] = inhibitors of firefly luciferase expression or activity, dose response, H4 neuroglioma cells, luminescence (AID 1990); format: functional, cell-based
HT-1080 = experiment: cytotoxicity in HT1080 fibrosarcoma cells, cell-based, fluorescence readout (AID 620); format: functional; conditions: Homo sapiens
[2] = target: Luciferin 4-monooxygenase (Photinus pyralis, UniProt P08659); experiment: Counter Screen for Luciferase-based Assay Positives. [Related pubchem assays: 620, 618, 411 ]
Chain of Luciferin 4-monooxygenase (P08659 whole entry): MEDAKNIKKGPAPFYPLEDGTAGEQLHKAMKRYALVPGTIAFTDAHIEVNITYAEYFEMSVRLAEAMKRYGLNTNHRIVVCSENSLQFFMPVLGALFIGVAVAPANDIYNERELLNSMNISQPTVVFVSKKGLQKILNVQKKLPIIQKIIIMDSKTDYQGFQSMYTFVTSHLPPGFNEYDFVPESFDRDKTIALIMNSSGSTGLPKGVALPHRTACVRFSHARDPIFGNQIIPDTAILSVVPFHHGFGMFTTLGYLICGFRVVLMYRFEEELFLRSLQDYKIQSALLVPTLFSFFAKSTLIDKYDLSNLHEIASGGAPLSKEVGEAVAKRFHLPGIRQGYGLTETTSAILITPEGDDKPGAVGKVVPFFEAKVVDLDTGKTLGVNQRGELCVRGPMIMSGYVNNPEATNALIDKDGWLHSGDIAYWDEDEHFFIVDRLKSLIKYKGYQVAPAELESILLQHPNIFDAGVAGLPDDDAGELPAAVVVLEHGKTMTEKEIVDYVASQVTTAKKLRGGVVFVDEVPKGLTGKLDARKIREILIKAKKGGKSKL

[3] = inhibitors of SNCA 5'UTR-driven reporter translation, confirmation, H4 neuroglioma cells, luminescence (AID 1988); format: functional, cell-based
[4] = target: T1, Ubiquitin-conjugating enzyme E2 N (Homo sapiens, UniProt P61088); format: functional
T1 sequence (P61088 whole entry): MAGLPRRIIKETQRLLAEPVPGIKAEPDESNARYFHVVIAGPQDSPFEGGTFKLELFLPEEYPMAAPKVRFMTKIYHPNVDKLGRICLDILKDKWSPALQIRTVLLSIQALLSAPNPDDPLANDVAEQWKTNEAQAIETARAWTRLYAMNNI

[5] = target: T1, Ubiquitin-conjugating enzyme E2 N; format: functional; remark: listed apart in the source
Bcl-2-related protein A1 = target: T2, Bcl-2-related protein A1 (Mus musculus, UniProt Q07440); format: functional;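 further: confirmatory dose–response counterscreen on Bfl-1, used to check hits from a UBC13 polyubiquitin inhibitor campaign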
T2 sequence (Q07440 whole entry): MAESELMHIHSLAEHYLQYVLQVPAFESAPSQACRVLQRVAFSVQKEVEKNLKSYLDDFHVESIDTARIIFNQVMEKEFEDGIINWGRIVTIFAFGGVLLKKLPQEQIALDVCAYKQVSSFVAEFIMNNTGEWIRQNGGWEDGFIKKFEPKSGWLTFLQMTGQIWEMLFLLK

[6] = Luminescence Cell-Based Dose Response HTS to Identify Inhibitors of 5'UTR Stem-Loop Driven Prion Protein mRNA Translation in H4 Neuroglioblastoma Cells. [Related pubchem assays: 1827 (Project Summary), 1813 (Primary HTS)]; format: functional
Cytochrome P450 3A4 = Cytochrome P450 3A4 (Homo sapiens, UniProt P08684);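 further: CYP3A4 tested as one member of a cytochrome P450 panel screen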
Chain of Cytochrome P450 3A4 (P08684 whole entry): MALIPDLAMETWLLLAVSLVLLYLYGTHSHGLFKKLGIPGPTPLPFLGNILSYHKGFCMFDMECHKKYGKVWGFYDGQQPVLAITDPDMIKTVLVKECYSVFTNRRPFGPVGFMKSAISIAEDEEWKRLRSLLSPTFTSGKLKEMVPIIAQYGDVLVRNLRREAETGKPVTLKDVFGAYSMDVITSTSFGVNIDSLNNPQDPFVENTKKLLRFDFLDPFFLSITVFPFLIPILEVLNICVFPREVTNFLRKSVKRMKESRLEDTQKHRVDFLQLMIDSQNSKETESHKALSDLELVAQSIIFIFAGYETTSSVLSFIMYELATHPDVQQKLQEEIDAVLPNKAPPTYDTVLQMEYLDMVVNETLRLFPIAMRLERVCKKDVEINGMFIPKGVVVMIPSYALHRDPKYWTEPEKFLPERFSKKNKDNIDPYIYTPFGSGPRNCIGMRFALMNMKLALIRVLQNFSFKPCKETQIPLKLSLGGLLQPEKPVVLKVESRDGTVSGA

Estrogen receptor = target: T3, Estrogen receptor (Homo sapiens, UniProt P03372);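 further: potency for inhibiting coactivator peptide recruitment to the receptor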
T3 sequence (P03372 whole entry): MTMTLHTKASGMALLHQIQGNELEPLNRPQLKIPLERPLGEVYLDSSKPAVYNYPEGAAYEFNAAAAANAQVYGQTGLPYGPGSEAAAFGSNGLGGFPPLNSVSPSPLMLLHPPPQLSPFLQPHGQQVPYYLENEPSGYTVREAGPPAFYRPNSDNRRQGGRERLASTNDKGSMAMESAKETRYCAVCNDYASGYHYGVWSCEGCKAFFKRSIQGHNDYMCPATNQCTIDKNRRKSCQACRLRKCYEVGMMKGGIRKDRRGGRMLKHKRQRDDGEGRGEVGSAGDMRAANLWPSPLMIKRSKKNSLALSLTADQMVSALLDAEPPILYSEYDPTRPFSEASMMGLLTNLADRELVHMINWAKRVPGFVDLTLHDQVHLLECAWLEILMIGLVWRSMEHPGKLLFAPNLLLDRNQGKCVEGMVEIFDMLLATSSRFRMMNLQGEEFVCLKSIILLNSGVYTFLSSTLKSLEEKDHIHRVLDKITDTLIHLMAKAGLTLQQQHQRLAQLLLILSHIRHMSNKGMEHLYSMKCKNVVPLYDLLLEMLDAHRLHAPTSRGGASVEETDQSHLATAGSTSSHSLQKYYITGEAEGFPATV

Vero = Vero cell cytotoxicity, cytotoxicity control for flavivirus capping enzyme inhibitors (AID 588742); format: functional; conditions: Chlorocebus sabaeus
Estrogen receptor beta = Estrogen receptor beta (Homo sapiens, UniProt Q92731);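 further: recombinant ER-beta bound to coactivator SRC1 peptide in presence of estradiol agonist; inhibitors block coactivator peptide binding and lower the FRET signal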
Chain of Estrogen receptor beta (Q92731 whole entry): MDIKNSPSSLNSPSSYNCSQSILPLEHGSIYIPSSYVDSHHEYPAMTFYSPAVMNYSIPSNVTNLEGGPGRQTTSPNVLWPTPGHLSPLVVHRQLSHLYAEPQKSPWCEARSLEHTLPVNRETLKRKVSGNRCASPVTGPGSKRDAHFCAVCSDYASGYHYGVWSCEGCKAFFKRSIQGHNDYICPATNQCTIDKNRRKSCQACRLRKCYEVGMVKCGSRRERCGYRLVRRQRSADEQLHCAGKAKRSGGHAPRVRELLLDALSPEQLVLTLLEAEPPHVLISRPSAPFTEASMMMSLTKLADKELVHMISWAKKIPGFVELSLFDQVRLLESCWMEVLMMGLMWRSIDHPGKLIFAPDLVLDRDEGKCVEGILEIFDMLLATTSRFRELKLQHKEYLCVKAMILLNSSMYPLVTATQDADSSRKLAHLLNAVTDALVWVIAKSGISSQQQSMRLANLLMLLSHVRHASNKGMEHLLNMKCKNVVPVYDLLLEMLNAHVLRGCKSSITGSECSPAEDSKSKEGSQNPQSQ

[7] = cytotoxicity in MIN6 insulinoma cells, dose response, cytotoxicity control, cell-based, mouse insulinoma (AID 2122); format: functional;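 further: confirmatory high-throughput counterscreen run to flag cytotoxic compounds; mouse MIN-6 beta cells carrying an insulin promoter eGFP reporter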
[8] = insulin promoter down-regulators in MIN6 cells, imaging, high-content screening, mouse beta cells (AID 1628); format: functional
[9] = target: T4, Rac GTPase-activating protein 1 (Homo sapiens, UniProt Q9H0H5); experiment: MgcRacGAP GTPase-activating activity inhibitors, confirmation, biochemical, ADP Hunter fluorescence, primary and confirmatory (AID 624330); format: functional
T4 sequence (Q9H0H5 whole entry): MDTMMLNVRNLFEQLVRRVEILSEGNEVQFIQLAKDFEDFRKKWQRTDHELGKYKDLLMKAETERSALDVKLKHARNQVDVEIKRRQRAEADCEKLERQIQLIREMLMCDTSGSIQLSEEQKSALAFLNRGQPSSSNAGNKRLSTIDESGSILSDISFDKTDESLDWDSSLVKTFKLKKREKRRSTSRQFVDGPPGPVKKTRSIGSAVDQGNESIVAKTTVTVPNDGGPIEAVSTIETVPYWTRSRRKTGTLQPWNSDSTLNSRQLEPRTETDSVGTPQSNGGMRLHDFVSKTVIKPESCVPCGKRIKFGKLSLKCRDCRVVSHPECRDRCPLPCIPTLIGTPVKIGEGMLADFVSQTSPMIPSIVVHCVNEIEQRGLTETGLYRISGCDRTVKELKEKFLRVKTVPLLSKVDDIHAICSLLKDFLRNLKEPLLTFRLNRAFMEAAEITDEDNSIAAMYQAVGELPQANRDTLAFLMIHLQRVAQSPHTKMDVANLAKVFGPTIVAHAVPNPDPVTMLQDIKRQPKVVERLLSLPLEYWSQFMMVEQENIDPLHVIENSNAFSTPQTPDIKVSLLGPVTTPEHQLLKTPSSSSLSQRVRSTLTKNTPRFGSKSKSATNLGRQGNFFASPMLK

[10] = HepG2 cell cytotoxicity, dose response, cytotoxicity control for Shn3 inhibitor project, CellTiter-Glo, cherry-picked (AID 624134); format: functional, cell-based
[11] = control 3'UTR Renilla luciferase suppression, dose response, counter-screen for Shn3 inhibitor project, cell-based, Clone20-Shn3RL, cherry-picked (AID 624133); format: functional
INS1 = experiment: beta cell apoptosis inhibitors, cytokine rescue, dose response, luminescence, retest (AID 449756); format: functional, cell-based; conditions: Rattus norvegicus;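 further: cell death triggered by IL-1 beta plus TNF-alpha plus IFN-gamma mixture; protective hits raise ATP signal compared with cytokine alone wells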
[12] = Shn3 3'UTR reporter inhibitors, dose response, cell-based, Clone20 osteoblasts, firefly luciferase, cherry-picked (AID 624132); format: functional;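 further: firefly luciferase luminescence from reporter carrying the Shn3 3'UTR in osteoblasts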
BJ [13] = experiment: cytotoxicity toward BJ-TERT fibroblasts, dose response, cell-based, RAS-independent, luminescence (AID 1933); format: functional; conditions: Homo sapiens
[14] = inhibitors of SNCA 5'UTR-driven translation, confirmation, luminescence, H4 neuroglioblastoma cells, dose confirmation (AID 2454); format: functional, cell-based;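 further: H4 neuroglioblastoma cells carrying an alpha-synuclein 5'UTR luciferase reporter; potency for inhibition of the luciferase signal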
[15] = target: T5, Microphthalmia-associated transcription factor (Homo sapiens, UniProt O75030); experiment: TRPM1 promoter luciferase signal decrease, dose response, MITF inhibitor project, cell-based, SK-MEL-5, cherry-picked, set 3 (AID 493073); format: functional
T5 sequence (O75030 whole entry): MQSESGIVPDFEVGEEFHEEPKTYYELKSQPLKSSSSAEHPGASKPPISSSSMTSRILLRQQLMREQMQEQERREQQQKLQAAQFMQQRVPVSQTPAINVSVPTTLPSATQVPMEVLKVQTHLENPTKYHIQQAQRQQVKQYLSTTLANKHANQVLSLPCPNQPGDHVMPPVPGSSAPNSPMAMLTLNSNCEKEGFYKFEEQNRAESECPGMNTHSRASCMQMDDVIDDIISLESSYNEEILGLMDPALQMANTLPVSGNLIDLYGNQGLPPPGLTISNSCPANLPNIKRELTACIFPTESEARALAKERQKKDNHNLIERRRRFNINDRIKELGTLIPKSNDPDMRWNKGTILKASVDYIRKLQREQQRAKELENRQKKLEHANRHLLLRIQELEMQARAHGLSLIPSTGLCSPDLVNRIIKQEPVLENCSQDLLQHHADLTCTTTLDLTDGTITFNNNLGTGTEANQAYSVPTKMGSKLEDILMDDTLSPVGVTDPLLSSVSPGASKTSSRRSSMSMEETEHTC

[16] = cytotoxicity toward DRD oncogenic fibroblasts, dose response, cell-based, non-viral oncogenic, luminescence (AID 1934); format: functional; conditions: Homo sapiens
BJ [17] = experiment: cytotoxicity toward BJ-TERT-LT-ST fibroblasts, dose response, cell-based, RAS-independent, luminescence (AID 1935); format: functional; conditions: Homo sapiens;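 further: BJ fibroblasts immortalized with TERT plus LT and ST oncogenes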
cells = format: functional, cell-based
BJ [18] = experiment: cytotoxicity toward Ras-transformed BJeLR fibroblasts, dose response, cell-based, alamar blue fluorescence, cherrypicked samples (AID 2631); format: functional; conditions: Homo sapiens;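 further: confirmatory dose-response assay in RAS-dependent BJ fibroblasts engineered with TERT, LT and ST, with cytotoxicity read by fluorescence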
[19] = luciferase reporter signal reduction – luminescence, H4-C neuroglioblastoma cells, dose response (AID 2458); format: functional, cell-based;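 further: H4 neuroglioblastoma cells stably carrying a luciferase reporter gene fusion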
BJ [20] = experiment: cells; format: functional, cell-based; conditions: Homo sapiens
[21] = cytotoxicity in HMLE control line with eGFP shRNA, dose response, counter-screen for HMLE_sh_ECad selective toxicity project, cell-based, HMLE_sh_eGFP, luminescence (AID 463074); format: functional, Homo sapiens;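 further: HMLE human mammary epithelial cells expressing control shRNA against eGFP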
[22] = microbe, parasite or virus in culture; format: functional; conditions: Mycobacterium tuberculosis
Paired box protein Pax-8 = Paired box protein Pax-8 (Homo sapiens, UniProt Q06710); experiment: inhibitors of PAX8-driven TPO luciferase reporter, dose response, RMG-I cells, cherry-pick (AID 687027); format: functional, cell-based;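 further: luciferase reporter driven by Pax8 target thyroperoxidase promoter measured by SteadyGlo luminescence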
Chain of Paired box protein Pax-8 (Q06710 whole entry): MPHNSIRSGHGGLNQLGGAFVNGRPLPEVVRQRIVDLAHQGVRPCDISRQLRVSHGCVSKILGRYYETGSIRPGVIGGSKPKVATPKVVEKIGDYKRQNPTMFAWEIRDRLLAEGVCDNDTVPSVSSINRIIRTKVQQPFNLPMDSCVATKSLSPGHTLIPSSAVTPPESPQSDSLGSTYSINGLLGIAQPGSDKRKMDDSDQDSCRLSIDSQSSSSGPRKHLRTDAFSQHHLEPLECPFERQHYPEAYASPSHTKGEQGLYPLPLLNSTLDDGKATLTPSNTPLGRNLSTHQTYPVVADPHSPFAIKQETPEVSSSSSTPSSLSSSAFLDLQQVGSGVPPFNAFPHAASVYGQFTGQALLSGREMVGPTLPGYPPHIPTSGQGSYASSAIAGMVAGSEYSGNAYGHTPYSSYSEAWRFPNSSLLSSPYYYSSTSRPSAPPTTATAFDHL

[23] = Luminescence Cell-Based Dose Retest to Confirm Inhibitors of Cancer Stem Cells. [Related pubchem assays (depositor defined):AID2717, AID2721]; format: functional; conditions: Homo sapiens

CCN(CC)S(=O)(=O)c1cccc(C(=O)N/N=C(\C)c2cccs2)c1
AC50 (HeLa): 50.9 µM (active)

COc1ccc(C(=O)Nn2c(SCC(=O)NCc3ccccc3)nc3ccccc3c2=O)cc1
EC50 [1]: 9.49 µM (active) | EC50 (HT-1080): > 50 µM (not active) | EC50 [2]: 2.51 µM (active) | EC50 [3]: 403 nM (inconclusive) | IC50 [4]: > 20 µM (inactive) | IC50 [5]: 19.4 µM (active) | IC50 (Bcl-2-related protein A1): > 20 µM (inactive) | EC50 [6]: 9.71 µM (active)

Cc1s/c(=N\C(=O)c2ccco2)n(C)c1-c1ccccc1
AC50 (Cytochrome P450 3A4): inconclusive

O=C(Cc1cccc2ccccc12)N/N=C/c1ccc(Sc2nc3ccccc3s2)o1
AC50 (Cytochrome P450 3A4): inconclusive

CC1CCN(c2ccc(/C=N/n3nnnc3N)cc2[N+](=O)[O-])CC1
AC50 (Cytochrome P450 3A4): inconclusive

O=C(Nc1ccc(N2CCCC2)cc1)C(Cl)c1ccccc1 (centres undefined)
IC50 (Estrogen receptor): > 50 µM (not active) | CC50 (Vero): > 40 µM (active) | IC50 (Estrogen receptor beta): > 50 µM (not active)

COc1ccc(-c2c3c(nc4sc5c(O)nc(C)nc5c24)CCC3)cc1
IC50 [7]: > 16 µM (inactive) | IC50 [8]: 847 nM (active)

C#CCOCCOCCOCCNc1nc(N2CCN(C(=O)[C@H](CCCCN)n3cc([C@@H](N)CC(C)C)nn3)CC2)nc(N2CCN(C(=O)[C@H](CCCCN)n3cc([C@@H](N)CC(C)C)nn3)CC2)n1
IC50 [9]: 190 µM (active) | IC50 [4]: 14 µM (active) | IC50 [5]: 14.4 µM (active) | IC50 (Bcl-2-related protein A1): > 20 µM (inactive)

CC(CCCC(C)(C)O)NC(=O)c1cc(COc2ccc3ncccc3c2)on1 (centres undefined)
AC50 [10]: 3.65 µM (active) | AC50 [11]: 1.06 µM (active) | AC50 (INS1): 4.37 µM (active) | IC50 [7]: 1.48 µM (active) | IC50 [8]: 1960 nM (active) | AC50 [12]: 1.75 µM (active)

Nc1ccc(O)c2c(=O)cc(-c3ccccc3Cl)oc12
AC50 (HeLa): 79.6 µM (active)

COc1cc2c(c(OC)c1OC)-c1ccc(N(C)CC(OC)OC)c(=O)cc1[C@@H](NC(C)=O)CC2
EC50 (BJ [13]): 2.59 µM (inconclusive) | EC50 [14]: 1.22 µM (active) | EC50 [3]: < 100 nM (active) | AC50 [15]: 2.04 µM (active) | EC50 [16]: 2.35 µM (active) | EC50 (BJ [17]): 20 µM (inconclusive) | EC50 (cells): > 12 µM (not active) | EC50 (BJ [18]): 0.117 µM (active) | EC50 [6]: 8.84 µM (active) | EC50 [19]: > 12 µM (not active) | EC50 (BJ [20]): 3.06 µM (active)

CCCCn1cnc2c(c(-c3ccccc3)c(-c3ccccc3)n2Cc2ccco2)c1=N
EC50 (BJ [13]): 7.71 µM (active) | AC50 [21]: 50.9 µM (active) | CC50 [22]: > 40 µM (active) | AC50 (INS1): > 260 µM (inactive) | EC50 [16]: 9.06 µM (active) | EC50 (BJ [17]): 11.1 µM (inconclusive) | EC50 (BJ [18]): 76.5 µM (active) | AC50 (Paired box protein Pax-8): 9.7 µM (active) | AC50 [23]: 49.8 µM (active) | EC50 (BJ [20]): 36.1 µM (active)
